Measured values published in patent US7521065B2, “Compositions for the treatment and prevention of cancer” (priority 2001, dated 2009).

Assays:
[1] = test system: metastatic cutaneous and subcutaneous lesions and affected lymph nodes (breast cancer); test: Topical treatment of breast cancer metastases, case report Example VI; assay type: in vivo, human
Source text: In May 1998 a tumor was diagnosed in the left breast of a […] which had been treated for cancer of the right breast in 1974 by mastectomy, axillar resection, chemotherapy with cytoxan, metothrexate and 5-fluorouracil, and ovariectomy. In May 1999 they presented with numerous skin metastases on their upper torso and lymph node involvement. The patient underwent various therapies in Europe, which included chemotherapy, immunotherapy and hyperthermia, but numerous metastatic cutaneous and subcutaneous metastatic lesions remained on their chest, in the mastectomy scar, in the left axilla and on their back. […] As a precaution they are applying a lotion containing 0.2% solution of di-n-hexyl diselenide in jojoba oil onto areas of their skin once every two weeks.

[2] = test system: normal embryonic liver or lung cells; conditions: added to the growth media; cited from earlier work
[3] = test system: inoperable cancer of the rectum; test: Suppository treatment of rectal cancer, case report Example VIII; assay type: in vivo, human; conditions: suppositories containing 2% in cocoa butter, daily for 4 weeks
Procedure: A person was diagnosed with inoperable cancer of the rectum in 1998 and was offered radiation therapy, which they refused. A colostomy was performed in the fall of 1998. They applied suppositories containing 2% di-n-hexyl diselenide in cocoa butter daily into their rectum for a period of 4 weeks.

[4] = Source text: The therapeutic efficacy of the dialkyl diselenides of these compositions depends on (1) the length of the alkyl residue R, and (2) the composition of the inert carrier as these determine the degree to which they can penetrate through the skin. […] Increasing the average alkyl chain length beyond n-hexyl causes them to become less skin penetrating and more suitable for the treatment of superficial cancerous lesions. Shortening the chain length below n-hexyl increases the volatility of these compounds. This reduces their therapeutic efficacy as it causes them to evaporate when brought onto the skin.
Selection of the appropriate alkyl residues R in these compounds is important as it determines their ability to penetrate the skin. Preferred are dialkyl diselenides with linear, medium-length straight alkyl residues of at least 6 and not exceeding 8 carbon atoms.

small lump on breast = test: Cream applied onto breasts, case report Example V; assay type: in vivo, human; conditions: 0.2% in moisturizing cream, once a week; person
Source text: A person with a small lump on their breast was told that they were at risk of developing breast cancer. They applied onto their breasts once a week a cream containing 0.2% di-n-hexyl diselenide in a moisturizing cream of conventional composition. […] They presently continue to apply the selenium composition once a week as a precautionary measure.

[5] = test system: irregular melanotic spot on right hand; test: Topical treatment of a melanotic spot, case report Example II; assay type: in vivo, human; conditions: 10% solution in 1:1 n-decane/n-dodecane, once every day for one week, person
Source text: A subject presented with a small irregular melanotic spot of approximately 3 mm diameter on their right hand which the subject had since birth but which in recent years had increased in size and became unsymmetrical. […] New skin growing over the lesion closed it without a scar.

[6] = test system: high nuclear grade intraductal carcinoma of the right breast; test: Topical treatment of breast carcinoma, case report Example VII; assay type: in vivo, human
Source text: A person was diagnosed in July 1999 with a high nuclear grade intraductal carcinoma of the right breast. The tumor consisted of a hard mass in the lower left quadrant of the right breast of 3 cm diameter. In November 1999, a 6% di n-hexyl diselenide in a 1:1 mixture of n-decane and jojoba oil was applied onto the affected breast once per day. […] Status Jan. […] Status April 2001: Unchanged.

[7] = test system: skin lesion with all characteristics of a superficially spreading melanoma; test: Topical treatment of a skin lesion, case report Example I; assay type: in vivo, human; conditions: 10% solution in n-decane, twice a day for 3 days, person, lesion 0.8 cm
Source text: A subject presented with a skin lesion of 0.8 cm diameter on their right upper chest.

[8] = test system: squamous carcinoma on nose; test: Topical cream treatment of squamous carcinoma, case report Example III; assay type: in vivo, human; conditions: cream containing 6%, twice per day for 5 days; person
[9] = test system: several human cancer cell lines; conditions: cell cultures; cited from earlier work
[10] = test system: lesion diagnosed as precancerous; test: Impregnated adhesive bandage on precancerous lesion, case report Example IV; assay type: in vivo, human; conditions: adhesive bandage impregnated with compound; person
Source text: A person developed a lesion diagnosed as precancerous on the upper part of their back.

CCCCCC[SeH] [n-hexyl selenol]
outcome of recurrences on chest and metastases on back ([1]; 10% solution in n-decane): effectively controlled
follow-up after treatment of recurrences ([1]; after 10% solution in n-decane): remained free of obvious signs of cancer for one year

O=[Se](O)O [sodium selenite]
effect on normal cells [2]: without affecting

CCCCCC[Se][Se]CCCCCC [di-n-hexyl diselenide]
patient status during the following 2 years [3]: their status has remained stable, they gained weight, and was able to work
tumor mass by X-ray and sonographic examinations [3]: the tumor mass had ceased to grow
skin penetration properties [4]: excellent skin penetration properties
outcome of breast lump (small lump on breast): lump in their breast disappeared over a period of two months
outcome of melanotic spot [5]: caused the affected skin to turn brittle and to fall off
outcome of breast mass ([6]; 6% in 1:1 n-decane/jojoba oil, once per day, breast mass 3 cm diameter): Over a period of 4 weeks the breast mass shrunk and ultimately disappeared
status by ultrasonic examination ([6]; Status Jan. 8, 2000, unchanged April 2001): No breast mass detectable
outcome of metastatic lesions and affected lymph nodes ([1]; 5% in n-decane): caused their disappearance within two weeks
follow-up after treatment ([1]; after 5% in n-decane): remained free of cancer for two years
outcome of skin lesion [7]: caused a layer of dead cells to be formed which dropped off after 4 days without leaving a scar

CCCCCCC[Se][Se]CCCCCCC [di-n-heptyl diselenide]
outcome of squamous carcinoma lesion [8]: disappearance of the lesion
growth of cancer cell lines [9]: inhibit the growth

CCCCCCCC[Se][Se]CCCCCCCC [di-n-octyl diselenide]
outcome of precancerous lesion [10]: caused the lesion to dry out and drop off without a scar within 3 weeks
